Data reported in ChEMBL document CHEMBL5291721, “A preclinical secondary pharmacology resource illuminates target-adverse drug reaction associations of marketed drugs” (Nat Commun, 2023).

Experiments:
Thromboxane A2 receptor [1] = biological target: T1, Thromboxane A2 receptor (Homo sapiens, UniProt P21731); type: functional, cell-based
T1 sequence (P21731 whole entry): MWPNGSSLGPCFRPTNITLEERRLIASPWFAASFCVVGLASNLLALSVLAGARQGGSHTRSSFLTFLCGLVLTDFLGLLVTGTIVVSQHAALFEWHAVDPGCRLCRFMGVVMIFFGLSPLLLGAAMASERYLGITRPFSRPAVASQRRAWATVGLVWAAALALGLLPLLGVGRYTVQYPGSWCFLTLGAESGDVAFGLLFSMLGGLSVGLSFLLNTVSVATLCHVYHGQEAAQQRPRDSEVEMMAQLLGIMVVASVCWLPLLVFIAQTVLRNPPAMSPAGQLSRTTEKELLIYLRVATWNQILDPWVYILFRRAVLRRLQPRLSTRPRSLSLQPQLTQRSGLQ

[2] = biological target: 3',5'-cyclic-AMP phosphodiesterase 4A (Homo sapiens, UniProt P27815); type: functional
Chain of 3',5'-cyclic-AMP phosphodiesterase 4A (P27815 whole entry): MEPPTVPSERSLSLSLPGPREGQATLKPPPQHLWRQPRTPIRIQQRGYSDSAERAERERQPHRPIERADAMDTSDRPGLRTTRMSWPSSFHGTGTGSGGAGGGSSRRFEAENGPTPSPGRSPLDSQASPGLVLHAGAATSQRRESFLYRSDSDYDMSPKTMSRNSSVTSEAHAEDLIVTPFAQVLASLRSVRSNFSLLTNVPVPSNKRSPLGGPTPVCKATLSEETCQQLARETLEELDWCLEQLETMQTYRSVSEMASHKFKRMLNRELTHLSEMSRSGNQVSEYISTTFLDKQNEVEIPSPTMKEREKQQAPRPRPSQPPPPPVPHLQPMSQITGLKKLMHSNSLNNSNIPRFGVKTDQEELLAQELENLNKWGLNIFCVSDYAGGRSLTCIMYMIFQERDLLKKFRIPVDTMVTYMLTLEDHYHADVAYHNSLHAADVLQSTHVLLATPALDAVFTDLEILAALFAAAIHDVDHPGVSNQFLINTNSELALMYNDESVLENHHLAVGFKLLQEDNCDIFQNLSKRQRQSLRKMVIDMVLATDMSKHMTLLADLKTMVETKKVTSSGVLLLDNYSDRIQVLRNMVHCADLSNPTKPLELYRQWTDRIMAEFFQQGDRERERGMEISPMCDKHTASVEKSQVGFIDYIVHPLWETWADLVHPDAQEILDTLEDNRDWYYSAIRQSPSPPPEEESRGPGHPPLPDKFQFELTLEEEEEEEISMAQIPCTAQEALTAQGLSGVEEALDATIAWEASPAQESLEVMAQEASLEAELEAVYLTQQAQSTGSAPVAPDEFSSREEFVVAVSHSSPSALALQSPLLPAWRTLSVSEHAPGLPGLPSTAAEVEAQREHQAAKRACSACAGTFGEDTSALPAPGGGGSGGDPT

Prothrombin = Prothrombin (Homo sapiens, UniProt P00734); type: functional
[3] = biological target: T2, Muscarinic acetylcholine receptor M2 (Homo sapiens, UniProt P08172)
T2 sequence (P08172 whole entry): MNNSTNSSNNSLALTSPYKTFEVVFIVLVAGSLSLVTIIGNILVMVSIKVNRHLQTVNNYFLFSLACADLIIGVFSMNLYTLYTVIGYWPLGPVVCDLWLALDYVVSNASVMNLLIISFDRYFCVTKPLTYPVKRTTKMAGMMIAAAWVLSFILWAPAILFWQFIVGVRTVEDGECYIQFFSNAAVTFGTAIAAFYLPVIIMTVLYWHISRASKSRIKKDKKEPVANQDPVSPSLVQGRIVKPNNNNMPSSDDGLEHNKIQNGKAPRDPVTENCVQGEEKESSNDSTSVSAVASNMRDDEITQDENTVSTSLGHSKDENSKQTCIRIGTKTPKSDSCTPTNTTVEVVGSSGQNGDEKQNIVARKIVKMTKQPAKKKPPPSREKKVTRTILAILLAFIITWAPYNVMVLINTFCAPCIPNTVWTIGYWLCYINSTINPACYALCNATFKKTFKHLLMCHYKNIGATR

[4] = biological target: T3, 5-hydroxytryptamine receptor 1A (Homo sapiens, UniProt P08908)
T3 sequence (P08908 whole entry): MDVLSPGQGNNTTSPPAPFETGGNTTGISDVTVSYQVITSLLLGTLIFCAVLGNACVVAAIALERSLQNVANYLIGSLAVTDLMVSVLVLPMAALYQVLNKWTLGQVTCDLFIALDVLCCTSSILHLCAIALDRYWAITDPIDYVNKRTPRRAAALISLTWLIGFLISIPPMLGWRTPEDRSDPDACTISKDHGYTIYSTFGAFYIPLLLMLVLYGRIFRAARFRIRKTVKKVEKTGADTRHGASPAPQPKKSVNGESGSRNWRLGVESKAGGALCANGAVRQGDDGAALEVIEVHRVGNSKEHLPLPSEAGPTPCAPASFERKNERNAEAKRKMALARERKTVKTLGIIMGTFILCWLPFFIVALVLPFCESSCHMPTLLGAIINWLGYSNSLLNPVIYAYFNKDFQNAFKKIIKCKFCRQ

[5] = biological target: 5-hydroxytryptamine receptor 2B (Homo sapiens, UniProt P41595); type: functional, cell-based
Chain of 5-hydroxytryptamine receptor 2B (P41595 whole entry): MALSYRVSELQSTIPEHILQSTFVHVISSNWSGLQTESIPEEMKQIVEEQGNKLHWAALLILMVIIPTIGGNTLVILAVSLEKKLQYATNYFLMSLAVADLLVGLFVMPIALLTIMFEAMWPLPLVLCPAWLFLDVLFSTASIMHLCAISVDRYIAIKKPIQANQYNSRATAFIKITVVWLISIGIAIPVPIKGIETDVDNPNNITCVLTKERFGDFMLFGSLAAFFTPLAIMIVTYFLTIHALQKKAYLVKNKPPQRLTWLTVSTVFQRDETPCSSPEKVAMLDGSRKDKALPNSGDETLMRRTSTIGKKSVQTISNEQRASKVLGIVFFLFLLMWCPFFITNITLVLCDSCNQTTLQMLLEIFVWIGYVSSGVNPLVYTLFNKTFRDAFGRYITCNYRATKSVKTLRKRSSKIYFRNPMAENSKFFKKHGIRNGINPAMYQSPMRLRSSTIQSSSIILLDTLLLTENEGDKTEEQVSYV

[6] = biological target: Sodium-dependent dopamine transporter (Homo sapiens, UniProt Q01959)
Chain of Sodium-dependent dopamine transporter (Q01959 whole entry): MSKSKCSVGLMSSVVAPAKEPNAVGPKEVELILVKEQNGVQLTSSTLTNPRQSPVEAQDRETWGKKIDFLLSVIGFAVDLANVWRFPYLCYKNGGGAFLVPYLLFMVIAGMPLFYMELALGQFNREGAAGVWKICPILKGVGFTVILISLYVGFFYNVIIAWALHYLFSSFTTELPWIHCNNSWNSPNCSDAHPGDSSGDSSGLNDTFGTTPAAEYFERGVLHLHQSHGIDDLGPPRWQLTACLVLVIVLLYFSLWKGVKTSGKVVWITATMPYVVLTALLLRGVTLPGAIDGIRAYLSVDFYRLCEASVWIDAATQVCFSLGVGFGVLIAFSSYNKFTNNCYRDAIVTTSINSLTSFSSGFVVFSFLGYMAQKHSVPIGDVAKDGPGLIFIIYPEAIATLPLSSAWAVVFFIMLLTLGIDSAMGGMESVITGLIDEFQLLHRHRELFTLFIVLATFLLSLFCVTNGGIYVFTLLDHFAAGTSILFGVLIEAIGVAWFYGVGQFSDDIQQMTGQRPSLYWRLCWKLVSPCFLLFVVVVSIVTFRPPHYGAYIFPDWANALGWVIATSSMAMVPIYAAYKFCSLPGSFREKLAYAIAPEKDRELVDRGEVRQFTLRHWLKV

Thromboxane A2 receptor [7] = biological target: T1, Thromboxane A2 receptor; type: functional, cell-based; remark: listed apart in the source
[8] = biological target: Voltage-gated inwardly rectifying potassium channel KCNH2 (Homo sapiens, UniProt Q12809); type: functional
Chain of Voltage-gated inwardly rectifying potassium channel KCNH2 (Q12809 whole entry): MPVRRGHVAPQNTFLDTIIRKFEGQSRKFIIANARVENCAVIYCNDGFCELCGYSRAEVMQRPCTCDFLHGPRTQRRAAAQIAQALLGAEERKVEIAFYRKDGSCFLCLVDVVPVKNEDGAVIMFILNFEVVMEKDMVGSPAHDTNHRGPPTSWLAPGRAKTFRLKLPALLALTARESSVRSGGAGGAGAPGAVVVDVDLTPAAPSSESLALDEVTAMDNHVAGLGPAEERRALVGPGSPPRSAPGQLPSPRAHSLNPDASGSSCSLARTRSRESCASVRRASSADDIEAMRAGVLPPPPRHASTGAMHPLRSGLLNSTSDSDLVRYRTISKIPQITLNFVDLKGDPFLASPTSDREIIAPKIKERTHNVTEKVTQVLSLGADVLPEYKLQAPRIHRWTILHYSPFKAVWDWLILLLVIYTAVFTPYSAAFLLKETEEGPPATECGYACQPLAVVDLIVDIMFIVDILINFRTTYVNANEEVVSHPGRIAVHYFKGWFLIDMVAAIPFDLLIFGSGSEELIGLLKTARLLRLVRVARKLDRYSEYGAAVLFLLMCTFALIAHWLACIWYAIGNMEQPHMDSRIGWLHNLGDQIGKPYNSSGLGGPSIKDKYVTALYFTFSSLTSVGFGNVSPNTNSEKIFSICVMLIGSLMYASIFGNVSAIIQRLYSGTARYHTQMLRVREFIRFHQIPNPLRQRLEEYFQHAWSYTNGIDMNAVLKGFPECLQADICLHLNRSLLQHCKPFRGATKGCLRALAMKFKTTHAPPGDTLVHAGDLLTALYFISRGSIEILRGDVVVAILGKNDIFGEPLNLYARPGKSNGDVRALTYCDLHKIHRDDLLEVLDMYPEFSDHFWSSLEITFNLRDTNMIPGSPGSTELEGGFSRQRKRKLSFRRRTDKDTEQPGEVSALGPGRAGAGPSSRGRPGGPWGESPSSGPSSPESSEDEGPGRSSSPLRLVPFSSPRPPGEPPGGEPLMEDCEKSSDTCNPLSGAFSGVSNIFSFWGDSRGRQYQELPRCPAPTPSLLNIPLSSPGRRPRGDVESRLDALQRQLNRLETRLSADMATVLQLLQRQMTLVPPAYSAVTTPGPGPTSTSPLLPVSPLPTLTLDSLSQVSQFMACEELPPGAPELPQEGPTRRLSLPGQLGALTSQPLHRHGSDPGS

[9] = biological target: T4, Amine oxidase [flavin-containing] A (Homo sapiens, UniProt P21397); type: functional
T4 sequence (P21397 whole entry): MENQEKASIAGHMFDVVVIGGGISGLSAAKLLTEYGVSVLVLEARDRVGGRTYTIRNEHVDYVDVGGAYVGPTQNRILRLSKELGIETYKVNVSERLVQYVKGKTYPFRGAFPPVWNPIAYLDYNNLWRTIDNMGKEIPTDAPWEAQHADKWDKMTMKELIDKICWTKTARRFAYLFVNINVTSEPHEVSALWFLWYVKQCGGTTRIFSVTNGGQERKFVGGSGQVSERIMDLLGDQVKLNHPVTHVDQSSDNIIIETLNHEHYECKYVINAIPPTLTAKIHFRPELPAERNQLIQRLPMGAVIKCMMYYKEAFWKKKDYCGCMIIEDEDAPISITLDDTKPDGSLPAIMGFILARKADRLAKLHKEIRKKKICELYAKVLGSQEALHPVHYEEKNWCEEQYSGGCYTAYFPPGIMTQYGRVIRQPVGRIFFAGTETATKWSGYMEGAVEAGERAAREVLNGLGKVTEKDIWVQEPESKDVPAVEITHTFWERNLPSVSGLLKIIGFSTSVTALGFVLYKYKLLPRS

Histamine H3 receptor = Histamine H3 receptor (Homo sapiens, UniProt Q9Y5N1)
[10] = biological target: cGMP-inhibited 3',5'-cyclic phosphodiesterase 3A (Homo sapiens, UniProt Q14432); type: functional
Chain of cGMP-inhibited 3',5'-cyclic phosphodiesterase 3A (Q14432 whole entry): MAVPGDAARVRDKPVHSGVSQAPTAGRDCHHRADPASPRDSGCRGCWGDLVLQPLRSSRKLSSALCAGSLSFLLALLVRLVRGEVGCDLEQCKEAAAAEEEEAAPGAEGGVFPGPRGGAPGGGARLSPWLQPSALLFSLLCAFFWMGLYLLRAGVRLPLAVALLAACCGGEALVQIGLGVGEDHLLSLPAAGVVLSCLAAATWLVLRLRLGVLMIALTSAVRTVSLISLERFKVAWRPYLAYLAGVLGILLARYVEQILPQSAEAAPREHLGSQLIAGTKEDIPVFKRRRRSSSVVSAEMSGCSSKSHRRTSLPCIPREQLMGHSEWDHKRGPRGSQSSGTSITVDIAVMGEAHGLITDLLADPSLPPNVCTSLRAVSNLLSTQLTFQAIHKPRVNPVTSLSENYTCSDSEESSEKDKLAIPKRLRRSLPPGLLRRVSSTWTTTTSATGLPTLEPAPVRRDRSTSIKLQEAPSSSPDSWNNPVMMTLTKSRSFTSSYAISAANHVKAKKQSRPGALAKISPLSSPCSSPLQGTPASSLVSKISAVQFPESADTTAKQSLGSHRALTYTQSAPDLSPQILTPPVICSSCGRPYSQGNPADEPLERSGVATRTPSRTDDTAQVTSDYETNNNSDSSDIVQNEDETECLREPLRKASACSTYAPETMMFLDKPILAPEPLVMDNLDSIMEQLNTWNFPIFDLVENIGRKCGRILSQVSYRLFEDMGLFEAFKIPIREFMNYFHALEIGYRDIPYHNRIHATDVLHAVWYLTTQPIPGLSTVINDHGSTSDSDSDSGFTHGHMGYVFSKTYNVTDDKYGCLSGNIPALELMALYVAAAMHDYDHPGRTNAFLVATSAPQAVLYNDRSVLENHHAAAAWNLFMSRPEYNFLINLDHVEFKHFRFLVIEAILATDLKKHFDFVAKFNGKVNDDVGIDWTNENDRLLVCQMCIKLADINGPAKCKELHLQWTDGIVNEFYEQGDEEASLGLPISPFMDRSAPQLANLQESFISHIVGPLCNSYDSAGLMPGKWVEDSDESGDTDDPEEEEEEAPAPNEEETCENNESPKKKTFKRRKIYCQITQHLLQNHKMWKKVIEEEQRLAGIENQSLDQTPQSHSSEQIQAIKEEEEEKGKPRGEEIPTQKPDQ

Acetylcholinesterase = Acetylcholinesterase (Homo sapiens, UniProt P22303); type: functional
Chain of Acetylcholinesterase (P22303 whole entry): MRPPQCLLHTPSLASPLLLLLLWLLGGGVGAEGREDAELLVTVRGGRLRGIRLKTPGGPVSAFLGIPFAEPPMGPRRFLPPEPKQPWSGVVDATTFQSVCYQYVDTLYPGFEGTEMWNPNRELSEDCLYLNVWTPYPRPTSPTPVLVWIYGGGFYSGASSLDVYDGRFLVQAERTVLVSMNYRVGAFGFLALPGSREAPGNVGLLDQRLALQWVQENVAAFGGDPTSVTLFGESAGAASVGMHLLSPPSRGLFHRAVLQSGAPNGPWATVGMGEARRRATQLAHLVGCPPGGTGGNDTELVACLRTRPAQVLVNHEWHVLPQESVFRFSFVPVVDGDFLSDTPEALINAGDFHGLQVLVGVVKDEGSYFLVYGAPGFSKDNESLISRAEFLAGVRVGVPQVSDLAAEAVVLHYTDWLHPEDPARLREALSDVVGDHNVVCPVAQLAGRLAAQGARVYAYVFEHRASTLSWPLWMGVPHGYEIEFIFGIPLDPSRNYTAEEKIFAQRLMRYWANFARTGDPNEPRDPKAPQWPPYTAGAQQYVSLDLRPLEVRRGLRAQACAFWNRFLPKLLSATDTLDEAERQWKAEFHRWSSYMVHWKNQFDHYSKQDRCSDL

[11] = biological target: T5, Alpha-2A adrenergic receptor (Homo sapiens, UniProt P08913)
T5 sequence (P08913 whole entry): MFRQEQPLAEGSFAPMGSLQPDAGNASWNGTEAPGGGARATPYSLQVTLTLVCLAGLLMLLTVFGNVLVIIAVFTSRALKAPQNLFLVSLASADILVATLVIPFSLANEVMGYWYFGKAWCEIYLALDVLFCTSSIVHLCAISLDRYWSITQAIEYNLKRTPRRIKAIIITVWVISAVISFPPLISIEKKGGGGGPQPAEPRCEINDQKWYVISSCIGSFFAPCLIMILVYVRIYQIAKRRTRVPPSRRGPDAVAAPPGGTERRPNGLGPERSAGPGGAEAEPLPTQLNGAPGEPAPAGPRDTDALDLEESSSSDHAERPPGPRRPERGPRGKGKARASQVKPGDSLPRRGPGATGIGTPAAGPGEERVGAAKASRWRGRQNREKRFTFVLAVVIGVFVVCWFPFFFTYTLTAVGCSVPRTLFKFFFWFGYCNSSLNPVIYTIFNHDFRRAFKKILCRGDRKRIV
Note: assay procedure not described here.

SMILES | AC50 (Thromboxane A2 receptor [1]) | AC50 [2] | AC50 (Prothrombin) | AC50 [3] | AC50 [4] | AC50 [5] | AC50 [6] | AC50 (Thromboxane A2 receptor [7]) | AC50 [8] | AC50 [9] | AC50 (Histamine H3 receptor) | AC50 [10] | AC50 (Acetylcholinesterase) | AC50 [11]
Cc1ccc(S(=O)(=O)NC(=O)NC2CCCCC2)cc1 [GLYCYCLAMIDE] | > 30 µM | > 30 µM | > 30 µM | > 30 µM | > 30 µM | > 30 µM | > 30 µM | > 30 µM | > 30 µM | > 30 µM | > 30 µM | > 30 µM | > 30 µM | > 30 µM
CN1CCCN(C(c2ccccc2)c2ccc(Cl)cc2)CC1 (configuration not stated) [HOMOCHLORCYCLIZINE] | > 3 µM | > 30 µM | > 30 µM | 0.149 µM | 13.7 µM | > 30 µM | 0.229 µM | 11.8 µM | 0.81 µM | > 30 µM | > 30 µM | > 30 µM | > 30 µM | 1.35 µM
CC(=O)OCC(=O)[C@@]1(O)CC[C@H]2[C@@H]3CCC4=CC(=O)CC[C@]4(C)[C@H]3[C@@H](O)C[C@@]21C [HYDROCORTISONE ACETATE] | > 30 µM | > 30 µM | > 30 µM | > 30 µM | > 30 µM | > 30 µM | > 30 µM | > 30 µM | > 30 µM | > 30 µM | > 30 µM | > 30 µM | > 30 µM | > 30 µM
CC(COc1ccccc1)NC(C)C(O)c1ccc(O)cc1 (configuration not stated) [ISOXSUPRINE] | > 30 µM | > 30 µM | > 30 µM | > 30 µM | 0.203 µM | > 30 µM | 0.625 µM | > 30 µM | 15 µM | > 10 µM | > 30 µM | > 30 µM | > 30 µM | 0.446 µM
Cc1oc(=O)oc1COC(=O)[C@@H]1N2C(=O)[C@@H](NC(=O)[C@H](N)c3ccccc3)[C@H]2SC1(C)C [LENAMPICILLIN] | 24.9 µM | > 30 µM | > 30 µM | > 30 µM | > 30 µM | > 30 µM | > 30 µM | > 30 µM | > 30 µM | > 30 µM | > 30 µM | > 30 µM | > 30 µM | > 30 µM
COc1ccc(OC)c(C(O)C(C)N)c1 (configuration not stated) [METHOXAMINE] | > 30 µM | > 30 µM | > 30 µM | > 30 µM | > 30 µM | > 30 µM | > 30 µM | > 30 µM | > 30 µM | > 30 µM | > 30 µM | > 30 µM | > 30 µM | 25.9 µM
CC1(CCN2CCCCC2)C(=O)CCc2ccccc21 (configuration not stated) [NEPINALONE] | > 30 µM | > 30 µM | > 30 µM | 7.14 µM | > 30 µM | > 30 µM | > 30 µM | > 30 µM | > 30 µM | > 30 µM | > 30 µM | > 30 µM | > 30 µM | 18.3 µM
COC(=O)C[C@](O)(CCCC(C)(C)O)C(=O)O[C@@H]1C(OC)=C[C@]23CCCN2CCc2cc4c(cc2[C@H]13)OCO4 [OMACETAXINE MEPESUCCINATE] | > 30 µM | > 30 µM | > 30 µM | > 30 µM | > 30 µM | > 30 µM | > 30 µM | > 30 µM | > 30 µM | > 30 µM | > 30 µM | > 30 µM | > 30 µM | > 30 µM
COc1cccc(C(=O)CCN[C@@H](C)[C@H](O)c2ccccc2)c1 [OXYFEDRINE] | > 30 µM | > 30 µM | > 30 µM | > 30 µM | 0.0096 µM | > 30 µM | 2.97 µM | > 30 µM | 10 µM | > 30 µM | > 30 µM | > 30 µM | > 30 µM | 5.96 µM
CC[N+](C)(CC)CCOC(=O)C(O)(c1ccccc1)C1CCCCC1 (configuration not stated) [OXYPHENONIUM] | > 30 µM | > 30 µM | > 30 µM | 0.003 µM | > 30 µM | > 30 µM | 21.9 µM | > 30 µM | 14 µM | > 30 µM | > 30 µM | > 30 µM | > 30 µM | > 30 µM
C[C@@H]1C[C@H]2[C@@H]3C[C@H](F)C4=CC(=O)C=C[C@]4(C)[C@H]3[C@@H](O)C[C@]2(C)[C@@]1(O)C(=O)CO [PARAMETHASONE] | > 30 µM | > 30 µM | > 30 µM | > 30 µM | > 30 µM | > 30 µM | > 30 µM | > 30 µM | > 30 µM | > 30 µM | > 30 µM | > 30 µM | > 30 µM | > 30 µM
N[C@@H](Cc1ccccc1)C(=O)O [PHENYLALANINE] | > 30 µM | > 30 µM | > 30 µM | > 30 µM | > 30 µM | > 30 µM | > 30 µM | > 30 µM | > 30 µM | > 30 µM | > 30 µM | > 30 µM | > 30 µM | > 30 µM
CCCn1cnc2c1c(=O)n(CCCCC(C)=O)c(=O)n2C [PROPENTOFYLLINE] | > 30 µM | 8.96 µM | > 30 µM | > 30 µM | > 30 µM | > 30 µM | > 30 µM | > 30 µM | > 30 µM | > 30 µM | > 30 µM | > 30 µM | > 30 µM | > 30 µM
